Assay results reported in PubChem BioAssay (NCI).
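These data come from cells grown in 96-well plates and exposed to compound for 48 hours at five concentrations. Definition used: TGI = concentration required for complete inhibition of growth.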

Columns and labels:
Assay in all cases: NCI anticancer screen, dose series, 48 h
SK-OV-3 ovarian = tested on: SK-OV-3 ovarian
KM12 colon = tested on: KM12 colon
SN12C renal = tested on: SN12C renal
A498 renal = tested on: A498 renal
XF 498 CNS = tested on: XF 498 CNS
SNB-19 CNS = tested on: SNB-19 CNS
CCRF-CEM leukemia = tested on: CCRF-CEM leukemia
OVCAR-3 ovarian = tested on: OVCAR-3 ovarian
U251 CNS = tested on: U251 CNS
OVCAR-8 ovarian = tested on: OVCAR-8 ovarian
UO-31 renal = tested on: UO-31 renal
DLD-1 colon = tested on: DLD-1 colon
SK-MEL-2 melanoma = tested on: SK-MEL-2 melanoma
HCT-15 colon = tested on: HCT-15 colon
SW-620 colon = tested on: SW-620 colon
SF-539 CNS = tested on: SF-539 CNS
OVCAR-4 ovarian = tested on: OVCAR-4 ovarian
UACC-257 melanoma = tested on: UACC-257 melanoma
UACC-62 melanoma = tested on: UACC-62 melanoma
SNB-75 CNS = tested on: SNB-75 CNS
IGROV1 ovarian = tested on: IGROV1 ovarian
NCI-H460 lung = tested on: NCI-H460 lung
HOP-18 NSCLC = tested on: HOP-18 NSCLC
LXFL 529 NSCLC = tested on: LXFL 529 NSCLC
HOP-92 NSCLC = tested on: HOP-92 NSCLC
M14 melanoma = tested on: M14 melanoma
SF-268 CNS = tested on: SF-268 CNS
SNB-78 CNS = tested on: SNB-78 CNS
SF-295 CNS = tested on: SF-295 CNS
OVCAR-5 ovarian = tested on: OVCAR-5 ovarian
A549 NSCLC = tested on: A549 NSCLC
RXF 393 renal = tested on: RXF 393 renal
EKVX NSCLC = tested on: EKVX NSCLC
HCC-2998 colon = tested on: HCC-2998 colon
NCI-H23 lung = tested on: NCI-H23 lung
MALME-3M melanoma = tested on: MALME-3M melanoma
HOP-62 NSCLC = tested on: HOP-62 NSCLC
HCT-116 colon = tested on: HCT-116 colon
ACHN renal = tested on: ACHN renal
M19-MEL melanoma = tested on: M19-MEL melanoma
HT29 colon = tested on: HT29 colon
RPMI-8226 leukemia = tested on: RPMI-8226 leukemia
HL-60(TB) leukemia = tested on: HL-60(TB) leukemia
TK-10 renal = tested on: TK-10 renal
KM20L2 colon = tested on: KM20L2 colon
SK-MEL-28 melanoma = tested on: SK-MEL-28 melanoma
COLO 205 colon = tested on: COLO 205 colon
NCI-H522 lung = tested on: NCI-H522 lung
NCI-H226 lung = tested on: NCI-H226 lung
SK-MEL-5 melanoma = tested on: SK-MEL-5 melanoma
LOX IMVI melanoma = tested on: LOX IMVI melanoma
DMS 114 small cell lung = tested on: DMS 114 small cell lung
786-0 renal = tested on: 786-0 renal
MOLT-4 leukemia = tested on: MOLT-4 leukemia
SR leukemia = tested on: SR leukemia
K-562 leukemia = tested on: K-562 leukemia

Question: Which results are given for `CCCCCCCCCCCCCC(=S)N/C=C/OC`?
Answer: TGI (SK-OV-3 ovarian): > 100 µM; TGI (KM12 colon): 81.9 µM; TGI (SN12C renal): > 100 µM; TGI (A498 renal): 86.2 µM; TGI (XF 498 CNS): 51.9 µM; TGI (SNB-19 CNS): > 100 µM; TGI (CCRF-CEM leukemia): 56.2 µM; TGI (OVCAR-3 ovarian): 56.1 µM; TGI (U251 CNS): 53.1 µM; TGI (OVCAR-8 ovarian): > 100 µM; TGI (UO-31 renal): 95.6 µM; TGI (DLD-1 colon): > 100 µM; TGI (SK-MEL-2 melanoma): 73 µM; TGI (HCT-15 colon): 53.3 µM; TGI (SW-620 colon): > 100 µM; TGI (SF-539 CNS): > 100 µM; TGI (OVCAR-4 ovarian): > 100 µM; TGI (UACC-257 melanoma): 57 µM; TGI (UACC-62 melanoma): 71.3 µM; TGI (SNB-75 CNS): > 100 µM; TGI (IGROV1 ovarian): > 100 µM; TGI (NCI-H460 lung): > 100 µM; TGI (HOP-18 NSCLC): > 100 µM; TGI (LXFL 529 NSCLC): > 100 µM; TGI (HOP-92 NSCLC): 74.5 µM; TGI (M14 melanoma): > 100 µM; TGI (SF-268 CNS): > 100 µM; TGI (SNB-78 CNS): > 100 µM; TGI (SF-295 CNS): 85.4 µM; TGI (OVCAR-5 ovarian): > 100 µM; TGI (A549 NSCLC): > 100 µM; TGI (RXF 393 renal): 54.8 µM; TGI (EKVX NSCLC): 81.7 µM; TGI (HCC-2998 colon): 45.9 µM; TGI (NCI-H23 lung): 74 µM; TGI (MALME-3M melanoma): > 100 µM; TGI (HOP-62 NSCLC): > 100 µM; TGI (HCT-116 colon): > 100 µM; TGI (ACHN renal): 96.4 µM; TGI (M19-MEL melanoma): 99.6 µM; TGI (HT29 colon): 50.1 µM; TGI (RPMI-8226 leukemia): 51.5 µM; TGI (HL-60(TB) leukemia): 36.8 µM; TGI (TK-10 renal): > 100 µM; TGI (KM20L2 colon): > 100 µM; TGI (SK-MEL-28 melanoma): > 100 µM; TGI (COLO 205 colon): 71.4 µM; TGI (NCI-H522 lung): 46.3 µM; TGI (NCI-H226 lung): > 100 µM; TGI (SK-MEL-5 melanoma): 61.7 µM; TGI (LOX IMVI melanoma): 46.8 µM; TGI (DMS 114 small cell lung): 48.3 µM; TGI (786-0 renal): > 100 µM

Question: Which results are given for `Cc1ccc(C2=C(c3ccccc3)C(=O)C(c3ccccc3)=C2c2ccc(C)cc2)cc1`?
Answer: TGI (SK-OV-3 ovarian): > 100 µM; TGI (KM12 colon): > 100 µM; TGI (SN12C renal): > 100 µM; TGI (A498 renal): > 100 µM; TGI (XF 498 CNS): > 100 µM; TGI (SNB-19 CNS): > 100 µM; TGI (CCRF-CEM leukemia): 70.5 µM; TGI (U251 CNS): > 100 µM; TGI (OVCAR-8 ovarian): > 100 µM; TGI (UO-31 renal): > 100 µM; TGI (DLD-1 colon): > 100 µM; TGI (SK-MEL-2 melanoma): > 100 µM; TGI (HCT-15 colon): > 100 µM; TGI (SW-620 colon): 95.7 µM; TGI (SF-539 CNS): 46.9 µM; TGI (UACC-257 melanoma): > 100 µM; TGI (SNB-75 CNS): > 100 µM; TGI (IGROV1 ovarian): > 100 µM; TGI (NCI-H460 lung): > 100 µM; TGI (HOP-18 NSCLC): > 100 µM; TGI (LXFL 529 NSCLC): > 100 µM; TGI (M14 melanoma): > 100 µM; TGI (SF-268 CNS): > 100 µM; TGI (SNB-78 CNS): > 100 µM; TGI (SF-295 CNS): > 100 µM; TGI (OVCAR-5 ovarian): > 100 µM; TGI (MOLT-4 leukemia): > 100 µM; TGI (A549 NSCLC): > 100 µM; TGI (RXF 393 renal): > 100 µM; TGI (EKVX NSCLC): > 100 µM; TGI (HCC-2998 colon): > 100 µM; TGI (NCI-H23 lung): 85.1 µM; TGI (MALME-3M melanoma): > 100 µM; TGI (HOP-62 NSCLC): > 100 µM; TGI (HCT-116 colon): > 100 µM; TGI (ACHN renal): > 100 µM; TGI (M19-MEL melanoma): > 100 µM; TGI (HT29 colon): > 100 µM; TGI (RPMI-8226 leukemia): > 100 µM; TGI (TK-10 renal): > 100 µM; TGI (KM20L2 colon): > 100 µM; TGI (SR leukemia): > 100 µM; TGI (SK-MEL-28 melanoma): 48 µM; TGI (NCI-H522 lung): > 100 µM; TGI (NCI-H226 lung): > 100 µM; TGI (SK-MEL-5 melanoma): > 100 µM; TGI (K-562 leukemia): > 100 µM; TGI (786-0 renal): > 100 µM
